What is called solubility is how much of the substance goes into solution per volume.

These results are taken from US8927588B2, “Imidazole carbonyl compound” (Daiichi Sankyo Company, Limited, priority 2007, dated 2015).

In data set [1] the target is ParE of Haemophilus influenzae (Haemophilus influenzae, UniProt P43703). Nature of the data set: ATP hydrolysis inhibition assay (pyruvate kinase/lactate dehydrogenase coupled), ParE of Haemophilus influenzae. It is filed as biochemical. On the procedure:
The ATP hydrolysis activity of GyrB and ParE was determined by correlating it with ADP production and NADH oxidation mediated by pyruvate kinase/lactate dehydrogenase. This method has been previously reported (Tamura, J. K. and Gellert, M. 1990, J. Biol. Chem. 265:21342-21349).
The ATP hydrolysis assay was carried out in a buffer solution containing final concentrations of 100 mM Tris-HCl (pH 7.5), 150 mM KCl, 1.5 mM MgCl2, 0.4 mM nicotinamide adenine dinucleotide (NADH), 2.5 mM phosphoenolpyruvate, 1 mM DTT, 15 U/ml pyruvate kinase, 10.5 U/ml lactate dehydrogenase and 1 mU/ml enzyme (GyrB or ParE of Streptococcus pneumoniae or Haemophilus influenzae) (provided that the concentration of KCl was 25 mM and the concentration of MgCl2 was 10 mM in the case of ParE of Haemophilus influenzae). A solution of the test compound serially four-fold diluted in DMSO:MeOH (7:3) was added at a final concentration of 5% (v/v). […] ATP was added at a final concentration of 1 mM; after mixing, the absorbance at 340 nm (amount of NADH) was determined (provided that the final ATP concentration was 0.3 mM in the case of ParE of Haemophilus influenzae). The reaction solution was incubated at 30° C. for two hours, and then the absorbance at 340 nm was determined. The ATP hydrolysis inhibition rate (%) was calculated from the difference in absorbance before and after the incubation (amount of NADH oxidized). […]

The subject of another data set is Haemophilus influenzae. Nature of the data set: Sensitivity of bacteria, broth microdilution method (MIC). The conditions noted are these: medium obtained by mixing hemophilus test medium with human serum at a ratio of 1:1. It is filed as cell-based. On the procedure:
The antibacterial activity of the compounds of the present invention was tested by sensitivity tests by the broth microdilution method. The assay was carried out according to the latest CLSI guidelines for managing the procedures of sensitivity tests: “M7-A7 Methods for Dilution Antimicrobial Susceptibility Tests for Bacteria That Grow Aerobically; Approved Standard—Seventh Edition (2006)”. Test strains were grown on appropriate agar plates overnight. A broth containing the test compound serially two-fold diluted was dispensed at 100 μL to each well of a 96-well microplate. As a growth control, a well with a broth not containing the test compound was also prepared. Colonies grown on the plates were suspended in saline, adjusted to 0.5 McFarland (OD625=0.08 to 0.10) using a colorimeter, and then diluted ten-fold with saline. The bacterial suspension was inoculated at 4 μL into each well of the microplate using a bacterial suspension inoculation apparatus. The inoculated microplate was incubated at 35° C. overnight (about 20 hours). The growth condition was observed by the naked eye, and the minimum concentration to inhibit bacterial proliferation was defined as a minimum inhibitory concentration (MIC).
(In general: Broth dilution looks for growth in wells or tubes with falling amounts of substance.)

A further data set has as its system HeLa cell proliferation. Nature of the data set: Cytotoxicity test, HeLa cell proliferation (MTS-PMS). It is filed as cell-based. The conditions noted are these: human, HeLa cells, 48 hours incubation, read-out: IC50 (cytotoxicity, proliferation inhibition). As to the method:
50 μL of a HeLa cell solution containing 80000 cells/mL was inoculated into each well of a 96-well microplate, and the mixture was incubated at 37° C. in a 5% carbon dioxide incubator for 24 hours. Thereafter, a medium containing the test compound serially four-fold diluted was added at 50 μL to each well, and the mixture was incubated at 37° C. in a 5% carbon dioxide incubator for 48 hours. As a control with an inhibition rate of 0%, a well not containing the test compound was also prepared. Following washing with phosphate buffered saline, a MTS [3-(4,5-dimethylthiazol-2-yl)-5-(3-carboxymethoxyphenyl)-2-(4-sulphophenyl)-2H-tetrazolium, inner salt]-PMS (phenazine methosulfate) coloring reagent solution was added, and the mixture was allowed to stand at 37° C. in a 5% carbon dioxide incubator for 1.5 hours. Thereafter, the absorbance at 490 nm was determined. The 50% inhibition concentration (IC50) was calculated from the proliferation inhibition rate (%) in the presence of four different concentrations of the test compound.

Data set [2] is described as follows: Solubility in water (JP1 fluid / JP2 fluid). Format: physicochemical. To be noted: thermodynamic from solid, room temperature.

The structures appear in SMILES notation. Values after ≈ are worked out from the molar mass of the structure shown. Where two headings read alike, the source gives them in different places.

Chain of ParE of Haemophilus influenzae (P43703 whole entry): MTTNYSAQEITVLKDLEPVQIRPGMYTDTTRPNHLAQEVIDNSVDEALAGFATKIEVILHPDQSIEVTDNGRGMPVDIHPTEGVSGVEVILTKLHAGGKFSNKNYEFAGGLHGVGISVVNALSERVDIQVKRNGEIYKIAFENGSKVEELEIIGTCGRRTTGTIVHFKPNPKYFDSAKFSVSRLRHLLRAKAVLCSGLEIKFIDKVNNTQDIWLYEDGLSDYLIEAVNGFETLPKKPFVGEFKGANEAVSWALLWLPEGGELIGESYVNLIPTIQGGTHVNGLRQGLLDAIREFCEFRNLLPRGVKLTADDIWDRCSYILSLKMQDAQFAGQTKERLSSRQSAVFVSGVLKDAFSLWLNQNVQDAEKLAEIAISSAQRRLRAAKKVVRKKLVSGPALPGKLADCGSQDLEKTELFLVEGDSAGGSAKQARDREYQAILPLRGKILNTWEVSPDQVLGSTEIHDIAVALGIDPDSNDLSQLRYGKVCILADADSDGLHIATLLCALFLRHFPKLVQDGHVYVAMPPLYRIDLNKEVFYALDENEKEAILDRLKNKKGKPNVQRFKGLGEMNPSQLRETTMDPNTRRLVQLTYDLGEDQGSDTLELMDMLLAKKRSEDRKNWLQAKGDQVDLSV

`CO[C@H]1CN(c2nc3cccc(C(=O)O)c3s2)CC[C@H]1NC(=O)c1nc(Cl)c(C)[nH]1` (racemic) [Example 8, cis(±)-2-(4-{[(4-Chloro-5-methyl-1H-imidazol-2-yl)carbonyl]amino}-3-methoxypiperidin-1-yl)-1,3-benzothiazole-7-carboxylic acid]: the IC50 in data set [1] is 131 nM. The MIC with Haemophilus influenzae was 4 µg/mL. Further, the IC50 at 48 h in the data set with HeLa cell proliferation was > 200 µg/mL. In addition, the solubility was 100 µg/mL (≈ 222 µM) in data set [2] (pH 1.2, simulated gastric fluid, 1st fluid for the disintegration test of the Japanese Pharmacopoeia, read-out: solubility in JP1 fluid) and 720 µg/mL (≈ 1600 µM) in data set [2] (pH 6.8, aqueous buffer, 2nd fluid for the disintegration test of the Japanese Pharmacopoeia, read-out: solubility in JP2 fluid).
